Results as given in patent US20070203079A1, “Methods of using small molecule compounds for neuroprotection” (priority 2005, published 2007).
Counter-ions that a name gives are not always drawn. Marks after values point to notes of the source that are not given here.

How the values were obtained:
[1] = test system: worms expressing Punc-54::Q82::GFP+Punc-54::torsinA with wt torsinA only; assay: Protein aggregate assay in worms with wt torsinA only; type: in vivo, C. elegans
Experimental: (§1) C elegans nematodes were grown at 20° C. on NGM plates as described by Brenner (Brenner, Genetics, 1974, 77: 71-94). Several transgenic C. elegans lines were used for primary screens of the Prestwick small molecule library. A transgenic worm line expressing Punc-54::Q82-GFP; with both wild type (“wt”) (Punc=54: :torsinA) or mutant (Punc-54::torsinA(ΔE)). Torsin-A expresses a phenotype that results in visible protein aggregation under fluorescent microscope. Transgenic worms were plated on drug plates and progeny were studied for a return to soluble protein.
(§2) Drugs were administered to C. elegans according to a standard procedure (Rand and Johnson, Methods Cell Biol, 1995, 48: 187-204), by mixing the solubilized drug with the agar medium on which the worms are grown. This mode of administration allows the continuous exposure of worms to the drug.
Each drug was first dissolved in an appropriate solvent, followed by adding the drug solution into pre-autoclaved media, with the volume of drug solution already taken into account. […]
(§3) The screening assays used to identify the compounds use protein aggregation readouts to determine the specificities of molecular action. […]
(§4) The methods for the aggregate analysis assay are described in Caldwell et al. (Hum Mol Genetics, 2003, 12(3): 307-319). […] MetaMorph Software (Universal Imaging Inc.) was used for pseudocoloration of images, image overlay, and aggregate size quantitation. For each worm line analyzed, average aggregate size was determined by capturing images of all aggregates in the posterior region of 30 L3-staged animals (for Q82::GFP aggregates) or all aggregates in 30 adult animals/day (for Q19::GFP analyses) at 1000× magnification. […]
(§5) To see the effect of the candidate compounds on suppressing protein misfolding and aggregation, five gravid adult worms were placed onto each drug plate and grown at 20° C. for approximately 3 days. Thirty Fl worms at L3 stage and young adult stage were counted for aggregate number.

[2] = test system: worms containing Punc-54::Q82::GFP+Punc-54::torsinA+Punc54::torsinA (ΔE); assay: Screen for reduction of polyglutamine protein aggregates in worms with wt and mutant torsinA; type: in vivo, C. elegans; settings: differentiated by Q82::GFP lines without torsinA, with wt torsinA or with mutant torsinA
Experimental: as §1, §2
Each drug was first dissolved in an appropriate solvent, followed by adding the drug solution into pre-autoclaved media, with the volume of drug solution already taken into account. […] Each plate was seeded with 100 μl concentrated E. coli OP50 bacteria.
as §3, §4, §5

[3] = test system: protein misfolding and aggregation in transgenic worms; assay: Preventative assay of protein aggregation (drug from hatching to L2 stage); type: in vivo, C. elegans; settings: exposure from hatching to L2 stage; scored at L3 and young adult
Experimental: To see the preventative effects of the candidate drug compounds on protein misfolding and aggregation, five gravid adult worms were placed onto each drug plate and grown at 20° C. for approximately 3 days. 35-40 Fl worms at L2 stage were picked and transferred to a control plate with the same concentration of control solvent compared to the drug plate. Thirty worms at L3 stage were counted for aggregate number 8 hours later. Thirty young adults were analyzed 32 hours later.
To calculate the scaled effectiveness of special regimen of drugs on worms based on standardized decrease in protein aggregates. The following formula was used: (A−B)/(A−C)×100%, where
A=number of aggregates for worms growing on solvent control plates
B=number of aggregates for worms grown on the specific drug plate for the entire life of the worms
C=number of aggregates for worms that received pre-L2 exposure and were then removed to solvent control plates
If the regimen has no effect, the value would equal 0%. Conversely, if the regimen was as effective as raising the worms on the drug for their entire life, the value would equal 100%.

[4] = 1 gram/kg dose, fasting normal individual; cited from earlier work
[5] = test system: Pdat-1::GFP+Pdat-1::α-synuclein+Pdat-1:: torsinA (ΔE) worms; assay: α-synuclein toxicity assay, mutant torsinA; type: in vivo, C. elegans
Text: (§6) We have previously shown that torsinA can prevent dopamine (“DA”) neuron degeneration resulting from overexpression of α-synuclein in the DA neurons of C. elegans, while torsinA (“ΔE”) has a reduced neuroprotection (Cao et al., J Neurosci, 2005, 25(1): 3801-3812). Specifically, only 26.1±5.3% of the worms expressing Pdat-1::GFP+Pdat-1::α-synuclein maintained all 4 wildtype CEP DA neurons as 4 day adults while the percentages of the worms expressing Pdat-1::GFP+Pdat-1::α-synuclein+Pdat-1::torsinA and Pdat-1::GFP+Pdat-1::α-synuclein+Pdat-1:: torsinA (ΔE) are 57.3±1.6% and 42.2±7.3%, respectively (Cao et al., J Neurosci, 2005, 25(1): 3801-3812) (FIG. 8).
(§7) All molecules are coded by Prestwick Library number. TorsinA-dependent compounds identified from the aggregation assay have torsinA-specific effects and, therefore, are likely to function in the same manner in the α-synuclein toxicity assay. All three α-synuclein transgenic lines were exposed to the five torsinA-dependent compounds to determine their torsinA-specificity (FIG. 9). As expected, none of these compounds had any effect in Pdat-1::GFP+Pdat-1::α-synuclein when torsinA expression is absent.

[6] = test system: Pdat-1::GFP+Pdat-1::α-synuclein+Pdat-1::torsinA worms; assay: α-synuclein toxicity assay, wt torsinA; type: in vivo, C. elegans
Text: as §6, §7

[7] = test system: worms expressing Punc-54::Q82::GFP+Punc-54::torsinA (ΔE) with a mutant torsinA only; assay: Protein aggregate assay in worms with mutant torsinA only; type: in vivo, C. elegans
Experimental: C elegans nematodes were grown at 20° C. on NGM plates as described by Brenner (Brenner, Genetics, 1974, 77: 71-94). Several transgenic C. elegans lines were used for primary screens of the Prestwick small molecule library. A transgenic worm line expressing Punc-54::Q82-GFP; with both wild type (“wt”) (Punc=54: :torsinA) or mutant (Punc-54::torsinA(ΔE)). Torsin-A expresses a phenotype that results in visible protein aggregation under fluorescent microscope. Transgenic worms were plated on drug plates and progeny were studied for a return to soluble protein. […]
as §3, §4

GFP::DAT-1 = assay: Pdat-1::GFP::DAT-1 expression within DA neurons; type: in vivo, C. elegans; settings: for Neurons with cell body and dendritic/axonal GFP: water control 70%; for Neurons with cell body and dendritic/axonal GFP / Mean pixel intensity of cell bodies ± SEM (fluorescence intensity): sodium salt; for Mean pixel intensity of cell bodies ± SEM (fluorescence intensity): water control 1970 ± 80, compounds at 1.85, 1.49, 1.86 mM
[8] = test system: transgenic worms containing the transgene Pdat-1::GFP without any torsinA expression; assay: 6-OHDA dopaminergic neurodegeneration in worms without torsinA; type: in vivo, C. elegans; settings: no torsinA expression
[9] = test system: transgenic worm line Pdat-1::CAT-2; assay: Neurodegeneration by overexpression of cat-2 (tyrosine hydroxylase); type: in vivo, C. elegans
Text: Overexpression of cat-2, the worm homologue for tyrosine hydroxylase, results in increased intraneuronal dopamine production and a characteristic loss of dopaminergic neurons in 75% of transgenic worms as compared to wild type (Cao et al., J Neurosci, 25(1):3801-3812). Co-expression of worm or human torsin proteins reduces the loss of dopaminergic neurons to a slight degree although neuronal degeneration is still present. The purpose of these experiments was to determine the effect of small molecule compounds in the Prestwick library in another different C. elegans model of neurodegeneration.
Worms were cultured using the same methods described above. A transgenic worm line expressing Pdat-1::CAT-2 expresses a phenotype that results in visible neurodegeneration at all developmental stages in an integrated line, in which only approximately 55% of 7 day old animals maintained all four CEP neurons. […] Compound 166 is an example of one such compound.
To further examine the neuroprotective effect of meclofenamic acid and lidocaine, we used a transgenic line (Pdat-1::CAT-2) we previously described (Cao et al., J Neurosci, 2005, 25(1): 3801-3812). Overexpression of cat-2, the C. elegans homolog of the tyrosine hydroxylase (“TH”) gene, causes a high level of DA production and as a result, DA neuron degeneration is observed (Cao et al., J Neurosci, 2005, 25(1): 3801-3812). […] We also tested whether meclofenamic acid was able to suppress CAT-2-induced neurodegeneration. […] Therefore, meclofenamic acid can protect DA neurons from degeneration produced by overexpression of the dopamine precursor, tyrosine hydroxylase.

[10] = Pdat-1::GFP::DAT-1, listed as Meclofenamic acid sodium salt
[11] = Pdat-1::GFP::DAT-1, listed as meclofenamic acid

SMILES: CCn1cc(C(=O)O)c(=O)c2ccc(C)nc21 [Compound 187, Nalidixic Acid]
- reduction of protein aggregation [1]: reduced protein aggregation
- Specificity in worm assay [2]: wt torsinA
- preventative effect on protein aggregation [3]: seem to be beneficial
- half-life [4]: about 90 minutes
- enhanced DA neuron survival [5]: no significant neuroprotection
- enhanced wild type DA neuron survival [6]: 28.9±4.9%

SMILES: Cc1ccc(Cl)c(Nc2ccccc2C(=O)O)c1Cl [Compound 206, Meclofenamic acid sodium salt]
- reduction of aggregation [7]: reduced aggregation
- Worms with no GFP (GFP::DAT-1; Pdat-1::GFP::DAT-1, water control 0%): 4.2%
- Neurons with cell body GFP only (GFP::DAT-1; Pdat-1::GFP::DAT-1, water control 30%): 51.1%^e
- Neurons with cell body and dendritic/axonal GFP (GFP::DAT-1; [10]): 44.7%^d
- Neurons with cell body and dendritic/axonal GFP (GFP::DAT-1; [11]): 44.7%
- Mean pixel intensity of cell bodies ± SEM (fluorescence intensity) (GFP::DAT-1; [10]): 1740 ± 64 A.U.
- Mean pixel intensity of cell bodies ± SEM (fluorescence intensity) (GFP::DAT-1; [11]): 1740 A.U.
- effect on GFP::DAT-1 level (GFP::DAT-1; result in words): can down-regulate the level of DAT-1 protein directly
- preventative effect on protein aggregation [3]: seem to be beneficial
- enhanced DA neuron survival [5]: 25±1.2%
- reduction of 6-OHDA-mediated neurodegeneration [8]: reduced the 6-OHDA-mediated neurodegeneration
- neuroprotective effect against CAT-2-induced neurodegeneration ([9]; Pdat-1::CAT-2): 19±1.1%
- neuroprotective action on dopaminergic neurons overexpressing cat-2 ([9]; Pdat-1::CAT-2, result in words): demonstrated a reduction in the standardized decrease in dopaminergic neurodegeneration
- enhanced wild type DA neuron survival [6]: failed to show any significant neuroprotection
